molecular target: Macrophage colony-stimulating factor 1 receptor (Homo sapiens, UniProt P07333); experiment: In Vitro CSF-1R Kinase Activity: The CSF-1R construct corresponds to recombinant human catalytic domain (aa 538-910), which was purchased from Invitrogen (cat #PV4092). CSF-1R was mixed with peptide substrate (biotin-TYR1, Sequence: Biotin-(Ahx)-GAEEEIYAAFFA-COOH, 4 μM final) at varying inhibitor concentrations in reaction buffer: 50 mM MOPSO pH 6.5, 10 mM MgCl2, 2 mM MnCl2, 2.5 mM DTI, 0.01% BSA, 0.1 mM Na3VO4 and 0.1 mM ATP. After about 60 min incubation at rt, the reaction was quenched by addition of EDTA (final concentration: 100 mM) and developed by addition of detection reagents (final approximate concentrations: 30 mM HEPES pH 7.0, 0.06% BSA, 0.006% Tween-20, 0.24 M KF, 80 ng/mL PT66K (europium labeled anti-phosphotyrosine antibody cat #61T66KLB Cisbio, Bedford, Mass.) and 0.6 μg/mL SAXL (Phycolink streptavidin-allophycocyanin acceptor, cat #PJ25S, Prozyme, San Leandro, Calif.). The developed reaction was incubated in the dark for about 60 min at rt, then read via a time-resolved fluorescence detector (Rubystar, BMG) using a 337 nm laser for excitation and monitoring emission wavelength at 665 nm. Within the linear range of the assay, the observed signal at 665 nm was directly related to phosphorylated product and can be used to calculate the IC50 values.
Sequence (P07333 whole entry, the tested form may be a part): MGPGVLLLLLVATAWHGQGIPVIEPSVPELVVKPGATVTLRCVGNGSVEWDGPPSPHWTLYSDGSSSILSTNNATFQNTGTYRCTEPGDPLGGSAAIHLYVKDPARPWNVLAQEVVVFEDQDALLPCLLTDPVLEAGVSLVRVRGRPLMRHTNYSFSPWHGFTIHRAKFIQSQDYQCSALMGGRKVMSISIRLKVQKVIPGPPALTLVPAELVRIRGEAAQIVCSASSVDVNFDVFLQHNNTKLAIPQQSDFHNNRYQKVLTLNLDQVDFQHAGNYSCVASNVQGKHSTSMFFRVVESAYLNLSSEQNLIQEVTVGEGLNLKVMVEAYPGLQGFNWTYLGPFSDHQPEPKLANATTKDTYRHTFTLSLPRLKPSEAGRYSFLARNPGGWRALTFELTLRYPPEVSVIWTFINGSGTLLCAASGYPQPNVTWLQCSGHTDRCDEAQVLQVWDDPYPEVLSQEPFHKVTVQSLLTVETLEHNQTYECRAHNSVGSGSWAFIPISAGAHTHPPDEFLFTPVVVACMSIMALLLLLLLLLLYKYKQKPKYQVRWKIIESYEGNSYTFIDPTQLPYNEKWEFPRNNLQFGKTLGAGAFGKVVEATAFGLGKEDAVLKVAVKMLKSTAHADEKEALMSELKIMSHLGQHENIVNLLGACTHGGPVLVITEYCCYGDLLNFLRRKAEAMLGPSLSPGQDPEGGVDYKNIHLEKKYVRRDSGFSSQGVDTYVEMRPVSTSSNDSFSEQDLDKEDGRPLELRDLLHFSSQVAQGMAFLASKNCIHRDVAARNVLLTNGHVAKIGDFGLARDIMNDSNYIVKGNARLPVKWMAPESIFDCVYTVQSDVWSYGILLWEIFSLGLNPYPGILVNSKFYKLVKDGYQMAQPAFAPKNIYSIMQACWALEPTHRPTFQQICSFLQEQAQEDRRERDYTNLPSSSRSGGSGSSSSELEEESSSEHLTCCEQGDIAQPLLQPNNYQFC

IC50, < 100 nM:
O[C@H]1CC[C@@H](n2cc(Nc3nc(C4CCCCC4)cn4ncnc34)cn2)CC1
CC1(C)CC(n2cc(Nc3nc(C4CCCCC4)cn4ncnc34)cn2)CC(C)(C)O1
O[C@H]1CC[C@H](n2cc(Nc3nc(C4CCCCC4)cn4ncnc34)cn2)CC1

Reference: ChEMBL document CHEMBL5726902, “Heterocyclic kinase inhibitors” (2019)
